The values below come from patent publication US4684622A, “Compositions and methods for producing vasodilation and antioxytocic activity” (SmithKline Beckman Corporation, priority 1986, dated 1987).

In experiment [1] the target is T1, V2-vasopressin receptors (Sus scrofa, UniProt P32307).
T1 construct: Medullary pig kidney tissue; from tissue; host or cells: pig (hog) kidney medulla
Briefly: inhibition of adenylate cyclase activation by vasopressin, medullary pig kidney tissue. In kind it is biochemical. The protocol:
(§1) Antagonistic activity of the V1 -vasopressin receptors is determined in a protocol which measures the reversal of the vasopressin-induced contraction of rat thoracic aorta tissue. This is expressed as KB (nM) in the table below. Such anti-pressor activity is confirmed in a similar in vitro protocol using the plasma membranes of rat liver. V2 -vasopressin antagonism is determined as receptor binding ability measured by inhibition of 3H-LVP binding (KB as nM), by inhibition of adenylate cyclase activation by vasopressin in the medullary tissue of hog kidneys (Ki as nM) or in vivo in the hydropenic rat protocol (ED300 μg/kg). These procedures are described in the literature: F. Stassen et al., J. Pharmacology and Experimental Therapeutics, 223 50 (1982); F. Stassen et al., 1st International Conference on Diuretics, Miami, Fla., March (1984). Antagonistic activity at oxytocin receptors is determined in the isolated rat uterus protocol: W. Sawyer, et al., Endocrinology 106 81 (1979); P. Melin, et al., J. of Endocrinology 88 173 (1981).
(§2) ^a Medullary pig kidney tissue, […]

Experiment [2] has as its target T1, V2-vasopressin receptors. Briefly: inhibition of 3H-LVP binding, medullary pig kidney tissue. Here is the method:
as §1, §2

Experiment [3] concerns the target T2, V1-vasopressin receptors (Rattus norvegicus, UniProt P30560).
T2 construct: Rat aortic ring tissue; from tissue; host or cells: rat thoracic aorta rings
Put plainly: in vitro protocol using plasma membranes of rat liver. In kind it is binding. The settings on record: rat liver membrane. The protocol: as §1

Experiment [4] addresses T2, V1-vasopressin receptors. Briefly: reversal of vasopressin-induced contraction of rat thoracic aorta tissue. In kind it is cell-based. Particulars: rat aortic ring tissue. Here is the method:
as §1
^c Rat aortic ring tissue, […]

For experiment [5], the target named is T3, oxytocin receptors (Rattus norvegicus, UniProt P70536).
T3 construct: Rat uterus; from tissue; host or cells: isolated rat uterus
T3 sequence (P70536 1-388): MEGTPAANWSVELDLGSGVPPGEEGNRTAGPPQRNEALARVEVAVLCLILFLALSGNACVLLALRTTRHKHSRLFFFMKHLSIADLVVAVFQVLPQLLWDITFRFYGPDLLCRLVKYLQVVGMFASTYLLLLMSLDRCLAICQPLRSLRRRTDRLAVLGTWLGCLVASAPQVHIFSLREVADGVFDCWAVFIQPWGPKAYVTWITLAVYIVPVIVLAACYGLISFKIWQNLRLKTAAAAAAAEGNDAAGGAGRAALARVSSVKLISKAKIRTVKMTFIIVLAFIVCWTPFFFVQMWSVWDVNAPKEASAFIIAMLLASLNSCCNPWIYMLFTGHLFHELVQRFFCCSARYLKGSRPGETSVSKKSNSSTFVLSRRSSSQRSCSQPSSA
Put plainly: isolated rat uterus protocol. It counts as cell-based. The settings on record: read-out: Rat OXT KB. Here is the method: as §1

Experiment [6] addresses T4, V2-vasopressin receptors (Rattus norvegicus, UniProt Q00788).
T4 construct: Hydropenic rat; from tissue; host or cells: whole animal (hydropenic rat)
Put plainly: hydropenic rat protocol in vivo. Here is the method:
as §1

Numbered stars: 1 amine (or outer) side, 2 acyl side, 3 side chain; on linkers, the order of the positions; unused ones are H or OH. Bridge positions count the residues as written; N and C are the ends. Square brackets hold non-standard residues; d marks the D form. Peptide text beside a SMILES is read from it. X2 = O=C(CC1(S[*:2])CCCCC1)[*:1]; X1 = CC(C)(CC(=O)[*:1])S[*:2]; Mpa = O=C(O)CCS

T1 sequence (P32307 whole entry): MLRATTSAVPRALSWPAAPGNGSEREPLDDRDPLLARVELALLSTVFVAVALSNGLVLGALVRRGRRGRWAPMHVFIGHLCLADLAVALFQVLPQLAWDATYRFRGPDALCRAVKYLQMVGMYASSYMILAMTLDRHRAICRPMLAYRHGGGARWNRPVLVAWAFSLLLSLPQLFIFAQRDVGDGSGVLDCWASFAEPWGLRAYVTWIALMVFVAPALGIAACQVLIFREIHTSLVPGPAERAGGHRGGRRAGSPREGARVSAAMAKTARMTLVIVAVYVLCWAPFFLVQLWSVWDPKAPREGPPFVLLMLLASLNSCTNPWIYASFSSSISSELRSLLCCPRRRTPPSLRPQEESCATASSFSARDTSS
T2 sequence (P30560 whole entry): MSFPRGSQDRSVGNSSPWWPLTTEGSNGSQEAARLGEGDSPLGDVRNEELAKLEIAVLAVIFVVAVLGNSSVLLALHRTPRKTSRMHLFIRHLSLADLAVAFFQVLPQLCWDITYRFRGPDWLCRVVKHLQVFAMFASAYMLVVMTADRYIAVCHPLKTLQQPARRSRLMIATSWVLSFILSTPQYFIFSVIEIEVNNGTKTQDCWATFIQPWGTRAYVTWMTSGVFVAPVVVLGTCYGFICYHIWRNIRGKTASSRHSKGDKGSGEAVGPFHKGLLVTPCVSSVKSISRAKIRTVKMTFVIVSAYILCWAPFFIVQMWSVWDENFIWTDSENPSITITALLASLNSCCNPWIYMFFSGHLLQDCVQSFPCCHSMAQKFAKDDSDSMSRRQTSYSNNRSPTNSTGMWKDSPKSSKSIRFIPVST
T4 sequence (Q00788 whole entry): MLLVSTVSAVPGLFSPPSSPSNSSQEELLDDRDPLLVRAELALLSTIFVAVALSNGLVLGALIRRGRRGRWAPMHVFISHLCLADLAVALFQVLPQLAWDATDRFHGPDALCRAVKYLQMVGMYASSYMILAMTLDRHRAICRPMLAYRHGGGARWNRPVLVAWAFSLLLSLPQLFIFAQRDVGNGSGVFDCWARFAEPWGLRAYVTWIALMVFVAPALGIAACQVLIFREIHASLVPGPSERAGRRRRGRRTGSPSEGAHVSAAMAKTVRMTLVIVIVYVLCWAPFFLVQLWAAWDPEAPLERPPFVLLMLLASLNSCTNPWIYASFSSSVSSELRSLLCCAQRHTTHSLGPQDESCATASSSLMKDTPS

`COc1ccc(C[C@@H]2NC(=O)CC(C)(C)SSC[C@@H](C(=O)N3CCC[C@H]3C(=O)N[C@@H](CCCNC(=N)N)C(=O)NCC(N)=O)NC(=O)[C@H](CC(N)=O)NC(=O)[C@H](CCC(N)=O)NC(=O)[C@H](Cc3ccccc3)NC2=O)cc1` [F] (Y(Me)FQNCPRG-NH2; linker N-5 via X1): the “Pig V2 Ki” value in experiment [1] was “agonist”. Further, the Kb in experiment [2] amounted to 70 nM; in experiment [3] it was 2.9 nM.

Take `COc1ccc(C[C@@H]2NC(=O)CC(C)(C)SSC[C@@H](C(=O)N[C@@H](CCCNC(=N)N)C(N)=O)NC(=O)[C@H](CC(N)=O)NC(=O)[C@H](CCC(N)=O)NC(=O)[C@H](Cc3ccccc3)NC2=O)cc1` [A] (Y(Me)FQNCR-NH2; linker N-5 via X1): the Kb in experiment [2] came to 3000 nM; in experiment [3], 38 nM; in experiment [4] it was 5.69 nM; in experiment [5], 32.6 nM. For the same compound, the “Rat V2 ED300” value in experiment [6] is more than 5.959 mg/kg.

With `COc1ccc(C[C@@H]2NC(=O)CC3(CCCCC3)SSC[C@@H](C(=O)N3CCC[C@H]3C(=O)N[C@@H](CCCN=C(N)N)C(=O)NCC(N)=O)NC(=O)[C@H](CC(N)=O)NC(=O)[C@H](CCC(N)=O)NC(=O)[C@H](Cc3ccccc3)NC2=O)cc1` [G] (Y(Me)FQNCPRG-NH2; linker N-5 via X2), in experiment [1], affinity was put at a Ki of 210 nM. In addition, the Kb in experiment [2] is 369 nM; in experiment [3], 0.48 nM; in experiment [4], 0.026 nM.

For the compound `CCOc1ccc(C[C@H]2NC(=O)CCSSC[C@@H](C(=O)N[C@@H](CCCNC(=N)N)C(N)=O)NC(=O)[C@H](CC(N)=O)NC(=O)[C@H]([C@@H](C)O)NC(=O)[C@H]([C@@H](C)CC)NC2=O)cc1` [D] ([Mpa][dY](Et)ITNCR-NH2; disulfide 1-6), the figures for the Kb in experiment [2] and in experiment [5] were 1600 nM and 11.4 nM, respectively.

Take `COc1ccc(C[C@@H]2NC(=O)CC(C)(C)SSC[C@@H](C(=O)N[C@@H](CCCNC(=N)N)C(=O)NCC(N)=O)NC(=O)[C@H](CC(N)=O)NC(=O)[C@H](CCC(N)=O)NC(=O)[C@H](Cc3ccccc3)NC2=O)cc1` [B] (Y(Me)FQNCRG-NH2; linker N-5 via X1): the Kb turned out to be 3300 nM in experiment [2], 37 nM in experiment [3], 1.48 nM in experiment [4] and 18.9 nM in experiment [5]. Also, the “Rat V2 ED300” value in experiment [6] is more than 5.977 mg/kg.

Regarding `CCOc1ccc(C[C@H]2NC(=O)CC(C)(C)SSC[C@@H](C(=O)N[C@@H](CCCNC(=N)N)C(N)=O)NC(=O)[C@H](CC(N)=O)NC(=O)[C@H](CCC(N)=O)NC(=O)[C@H](Cc3ccccc3)NC2=O)cc1` [C] ([dY](Et)FQNCR-NH2; linker N-5 via X1), the Kb in experiment [2] was 350 nM; in experiment [4] (estimated, compound noncompetitive) it was 0.0072 nM; in experiment [5], 1.88 nM.

Turning to `CCOc1ccc(C[C@H]2NC(=O)CCSSC[C@@H](C(=O)N[C@@H](CCCNC(=N)N)C(=O)NCC(N)=O)NC(=O)[C@H](CC(N)=O)NC(=O)[C@H]([C@@H](C)O)NC(=O)[C@H]([C@@H](C)CC)NC2=O)cc1` [E] ([Mpa][dY](Et)ITNCRG-NH2; disulfide 1-6), the Kb in experiment [2] is 4100 nM; in experiment [5] it was 17.7 nM.
